# Laboratory results taken from the supplement of paper PMC10307832.
# How the values were obtained:
# Assay in all cases: relative viability (nuclei count vs DMSO), 5 days (fraction); higher = more cells survive
# [1] = compound: C1=CC(=CC=C1C2=CC(=C(S2)NC(=O)N)C(=O)N)F [TPCA-1]
# Summary of the method: (§1)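 Lung cancer cell lines were seeded into 1536-well plates, kept overnight at 37 °C and pinned with five library-drug doses (not always all listed) spaced by √10. After 5 days, nuclei were Hoechst-stained, imaged at 4× and counted with MetaXpress. Viability is treated-well nuclei over vehicle-well nuclei, taken as a median across plates. Plates needed control CV below 25% and at least one doubling.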
# [2] = compound: C1/C(=C\C2=CC=CS2)/C(=O)/C(=C/C3=CC=CS3)/C1
# Summary of the method: as §1
# [3] = compound: C[C@]12O[C@H](C[C@]1(O)CO)n1c3ccccc3c3c4c(c5c6ccccc6n2c5c31)CNC4=O [Lestaurtinib]
# Summary of the method: as §1
# [4] = compound: C1=CC(=CC=C1C2=CC(=C(S2)NC(=O)N)C(=O)N)F [TPCA-1] + Cc1nc(Nc2ncc(C(=O)Nc3c(C)cccc3Cl)s2)cc(N2CCN(CCO)CC2)n1 [Dasatinib] (partner 0.075 µM)
# Summary of the method: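 One day after seeding in 1536-well plates, lung cancer cell lines were dosed by pin tool. Dosing was either single-drug or a fixed anchor-drug dose plus five library-drug doses (not always all listed) in √10 steps. After 5 days, nuclei were stained in one fix-and-stain step and counted on 4× images, and relative viability is the nuclei count of treated wells over that of vehicle wells, given as the median of duplicate plates.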
Cell Line,relative viability ([1]; 0.04 µM),relative viability ([1]; 0.1265 µM),relative viability ([1]; 0.4 µM),relative viability ([1]; 1.265 µM),relative viability ([1]; 4 µM),relative viability ([2]; 0.2 µM),relative viability ([2]; 0.6325 µM),relative viability ([2]; 2 µM),relative viability ([2]; 6.325 µM),relative viability ([2]; 20 µM),relative viability ([3]; 0.005 µM),relative viability ([3]; 0.01581 µM),relative viability ([3]; 0.05 µM),relative viability ([3]; 0.1581 µM),relative viability ([3]; 0.5 µM),relative viability ([4]; first compound 0.04 µM),relative viability ([4]; first compound 0.1265 µM),relative viability ([4]; first compound 0.4 µM),relative viability ([4]; first compound 1.265 µM),relative viability ([4]; first compound 4 µM)
NCI-H1975,0.974,0.887,0.932,0.87,0.576,0.99,0.891,0.886,0.838,0.969,1.04,1.03,0.829,0.774,0.649,0.39,0.381,0.368,0.368,0.188
NCI-H1993,0.985,0.805,0.94,1.06,0.722,1.04,0.898,1.05,0.786,0.861,1.02,0.949,0.824,0.709,0.567,0.564,0.54,0.617,0.522,0.537
NCI-H2009,1.12,1,1.01,0.859,0.834,1.03,0.98,0.972,0.936,0.994,0.999,1.04,0.82,0.762,0.366,0.395,0.267,0.278,0.223,0.177
NCI-H2023,1.16,0.946,1.13,0.85,0.509,1,1.04,1.07,0.827,0.837,1.02,0.978,0.874,0.746,0.201,0.731,0.521,0.527,0.508,0.216
NCI-H2085,0.989,0.989,0.988,0.897,0.875,1.08,1.01,1.01,0.898,0.961,0.989,0.99,0.996,1.01,0.786,0.267,0.262,0.246,0.265,0.257
NCI-H2087,1.18,0.966,0.982,0.915,0.542,1.13,0.872,1.2,0.783,1.01,1.03,0.951,0.816,0.834,0.367,1.15,0.658,0.816,0.745,0.397
NCI-H2126,0.997,0.918,1.01,0.89,0.809,1.03,1.01,1.07,0.896,0.979,1.02,1.1,0.891,0.842,0.729,0.617,0.531,0.602,0.549,0.437
NCI-H2170,1.19,0.959,0.98,0.895,0.674,1,0.942,0.991,0.881,0.924,0.959,0.832,0.689,0.807,0.494,0.676,0.56,0.632,0.581,0.269
NCI-H2228,1.09,0.785,1.16,0.984,0.666,1.01,0.989,1.15,0.748,1.1,1.25,1.11,0.698,0.483,0.258,0.669,0.491,0.521,0.386,0.301
NCI-H2342,1,0.961,1.05,0.956,0.919,1.01,0.951,1.06,0.829,0.954,0.947,1.04,0.863,1.09,1.03,0.323,0.323,0.276,0.241,0.294
NCI-H2347,1.13,0.961,1.01,0.873,0.929,1.1,1.03,1.02,0.969,1.03,0.979,1.1,0.9,0.72,0.654,0.296,0.277,0.26,0.258,0.262
NCI-H2405,1.08,0.944,1.09,0.816,0.842,1.01,0.988,1.14,0.959,1.02,0.97,1.08,0.974,0.822,0.532,0.226,0.216,0.22,0.207,0.208
NCI-H3122,1.04,0.924,1,1.01,0.991,1.03,0.986,1.05,0.892,0.975,1.06,1.11,0.981,1.11,0.615,1.01,0.828,0.866,0.851,0.517
PC-3 [JPC-3],1.04,1,1.04,1.04,0.951,1.04,1.06,1.03,0.949,1.08,1.07,1.08,0.957,0.77,0.624,0.959,0.99,1.04,0.943,0.999
PC-14,1.03,0.946,1.06,1.04,0.838,1.03,1.06,1,0.899,0.995,1.06,1.11,0.848,0.741,0.344,0.324,0.245,0.283,0.144,0.0724
RERF-LC-KJ,1.02,0.895,0.982,0.93,0.826,0.984,1.04,1.02,0.878,0.927,1.03,1.09,0.847,0.827,0.558,0.988,0.668,0.76,0.591,0.508
SK-LU-1,1.13,0.9,1.07,0.836,0.632,1.12,1.09,1.07,0.91,1.1,1.07,0.883,0.531,0.563,0.263,0.217,0.189,0.209,0.183,0.173
SK-MES-1,1.06,0.864,0.976,0.881,0.604,1.05,1.03,1.02,0.906,0.972,1.02,0.931,0.57,0.394,0.259,0.491,0.251,0.333,0.224,0.152
SW 900,0.663,0.719,0.922,0.775,0.654,0.9,0.947,0.87,0.874,0.864,0.916,1.08,0.966,1.06,0.885,0.768,0.526,0.685,0.307,0.583
SW 1573,1.18,0.91,0.985,0.947,0.858,1.05,0.996,1.08,0.891,0.99,1.05,0.989,0.782,0.571,0.401,0.669,0.375,0.476,0.361,0.336
